One data set has as its target T1, Human DP receptor (Homo sapiens, UniProt Q13258).
T1 construct: expressed in transfected cells
T1 sequence (Q13258 1-359): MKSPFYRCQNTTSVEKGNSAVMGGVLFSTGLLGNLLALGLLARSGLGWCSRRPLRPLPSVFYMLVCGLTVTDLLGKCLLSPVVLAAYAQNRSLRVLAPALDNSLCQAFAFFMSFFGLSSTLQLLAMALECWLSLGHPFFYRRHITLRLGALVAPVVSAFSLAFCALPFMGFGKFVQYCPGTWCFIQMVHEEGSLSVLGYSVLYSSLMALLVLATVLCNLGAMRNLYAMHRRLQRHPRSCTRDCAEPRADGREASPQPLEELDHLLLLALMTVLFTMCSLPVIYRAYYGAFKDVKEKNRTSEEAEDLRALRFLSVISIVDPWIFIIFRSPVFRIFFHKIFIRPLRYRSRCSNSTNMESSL
The data set is described as follows: Measurement of DP receptor antagonistic activity using human DP receptor expressing cells (cAMP-HTRF). The note with it: inhibition of cAMP production increased by 10 nmol/L prostaglandin D2. The class given is cell-based. The method, then: Biological Example 1: Measurement of DP Receptor Antagonistic Activity Using Human DP Receptor Expressing Cells
cAMP-HTRF kit (SCETI MEDICAL LABO K.K., 62AM6PEJ) was used to measure DP receptor antagonistic activity. To a 384 well plate was added 10 μL/well of the compound of the present invention prepared at various concentrations and prostaglandin D2 (final concentration 10 nmol/L). Human DP receptor-expressing cells were suspended in phosphate buffer containing 2 μmoL/L diclofenac and 1 mmol/L IBMX (3-isobutyl-1-methylxantine) and seeded to 5000 cells/10 μL/well. After cell seeding, the cells were incubated at room temperature for 1 hour. Thereafter, anti-cAMP Cryptate conjugate and a cAMP-d2 solution were added according to a method of the measurement kit, and the mixture was incubated at room temperature for 1 hour, then the cAMP concentration in the sample was quantified.
Intensity of DP receptor antagonistic action by the compound of the present invention was represented by IC50 value (concentration of the compound of the present invention required to inhibit 50% of cAMP production in the absence of the compound of the present invention) calculated from an inhibition ratio to the cAMP production increased by 10 nmol/L prostaglandin D2 stimulation.
Background: TR-FRET usually uses a lanthanide donor and a delayed reading to cut background.

Data set [1] in a line: Measurement of concentration of compound in cerebrospinal fluid (CSF) after oral administration. The class given is in vivo. The note with it: rat, 3 mg/kg, male Wistar rats, oral 3 mg/5 mL/kg, five test substances mixed, CSF collected 3 hours after administration. Here is the method:
Pharmacokinetic Test 1: Measurement of Concentration of Compound of Present Invention in Cerebrospinal Fluid (Hereinbelow, CSF)
Five test substances were mixed, and a test substance solution was prepared so that the dose of each test substance was 3 mg/5 mL/kg. The medium used was 5% DMSO 20% kolliphor HS15/propylene glycol (7:3). The test substance solution was orally administered to male 8- to 10-week-old Wistar rats purchased from Charles River Japan. Three hours after administration, the rats were anesthetized and CSF was collected by cisternal puncture. The same amount of ethanol (wako) as CSF was taken with a syringe used for collection, and the compound adsorbed on the syringe was recovered by washing.
Candesartan (TRC) was used as an internal standard substance, 40 μL of acetonitrile and 160 μL of Candesartan-containing acetonitrile/ethanol (7:3) were added to 10 μL of the obtained CSF sample, and the mixture was stirred. To prepare a calibration curve, 40 μL of the compound solution and 160 μL of Candesartan-containing acetonitrile/ethanol (7:3) were added to 10 μL of plasma, and the mixture was stirred. The entire amount of each solution was transferred to a deproteinization filter plate and suction filtered. The obtained filtrate was appropriately diluted with acetonitrile/water (1:1) and used for measurement. In the measurement, standard samples for calibration curve were prepared in the same matrix and analyzed in the same manner. The measurement was performed under the following conditions.
Liquid Chromatography System: Prominence UFLCXR (Shimadzu Corporation),
Column: Shim-pack XR-ODSII 2.0 mm ID×75 mm (Shimadzu Corporation),
Column temperature: 40° C.,
Mobile phase: A: 0.2% formic acid 5 mmol/L ammonium acetate aqueous solution, B: acetonitrile,
Mass spectrometry system: API4000, API5000 (AB SCIEX)
A regression equation was calculated from the peak area ratio (peak area of the test substance/peak area of the internal standard substance) obtained by measuring the standard samples for calibration curve using analysis software Analyst ver. 1.5.2 (AB SCIEX). The peak area ratio was also obtained for a measurement sample and substituted into the regression equation to calculate a quantitative value. In calculation of mean value and standard deviation, points below the lower limit of quantification were calculated as 0.

The test system of another data set is normal rat. Put plainly: Effect of prolonging normal rat awakening time (electroencephalogram/electromyogram). The class given is in vivo. The note with it: rats, single oral dose of 3 mg/kg. The method, then: Biological Example 2: Effect of Prolonging Normal Rat Awakening Time
Chronic electrodes were placed in the brain and cervical muscles of rats to prepare rats in which electroencephalogram and electromyogram can be measured. After a recovery period of one week or more, the rat and a biological signal amplifier were connected in a shield box that blocked sound and electrical noise. After acclimatization in a measurement cage for 1 hour or more, various doses of the compound of the present invention were orally administered to rats in a single dose, and electroencephalogram and electromyogram were recorded 6 hours after the oral administration. After the measurement was completed, the rats were returned to a breeding cage each time, and a vehicle and each compound were evaluated with a washout period of one week or more.
The recorded electroencephalogram and electromyogram were analyzed using SleepSign Ver. 3 and divided into epochs every 10 seconds, and the stage was determined for any of awakening, non-REM sleep or REM sleep, with reference to characteristics of the electroencephalogram and electromyogram and spectral analysis results of each frequency component of the brain wave. […]

By IC50 is commonly meant the midpoint of a concentration-inhibition curve.

`Cc1cc(OCCC2CCCCO2)cc(C)c1C(=S)Nc1cc(C(C)C(=O)O)ccc1Cl` (stereo in doubt) [Example 21, 2-(4-Chloro-3-{[(2,6-dimethyl-4-{2-[(2R)-tetrahydro-2H-pyran-2-yl]ethoxy}phenyl)carbothioyl]amino}phenyl)propanoic Acid] returned a 50% inhibitory concentration (IC50) at Human DP receptor of 7.8 nM. The compound further came in with a concentration at 3 h in data set [1] of 0.066 µg/mL.
Consider `O=C(O)Cc1ccc(Cl)c(NC(=O)c2ccc(OCCC3CCCCC3)cc2C(F)(F)F)c1` [Example 2-1, {4-Chloro-3-[4-(2-cyclohexylethoxy)-2-(trifluoromethyl)benzamide]phenyl}acetic Acid], for which the IC50 against Human DP receptor amounted to 34 nM.
As for `Cc1cc(OCCC2CCCCO2)cc(C)c1C(=O)Nc1cc(CC(=O)O)ccc1Cl` (stereo not drawn) [Example 4, (4-Chloro-3-{2,6-dimethyl-4-[2-(oxan-2-yl)ethoxy]benzamide}phenyl)acetic Acid], at Human DP receptor, half-maximal inhibition (IC50) was put at 58 nM.
In the case of `Cc1cc(OCCC2CCCCC2)cc(C)c1C(=O)Nc1cc(CC(=O)O)ccc1Cl` [Example 4-1, {4-Chloro-3-[4-(2-cyclohexylethoxy)-2,6-dimethylbenzamide]phenyl}acetic Acid], at Human DP receptor, the IC50 amounted to 11 nM. This compound also showed a concentration at 3 h in data set [1] of 0.029 µg/mL.
In turn, `Cc1cc(OC2Cc3ccccc3C2)cc(C)c1C(=O)Nc1cc(CC(=O)O)ccc1F` [Example 5, (3-{4-[(2,3-Dihydro-1H-inden-2-yl)oxy]-2,6-dimethylbenzamide}-4-fluorophenyl)acetic Acid] had an IC50 on Human DP receptor of 10 nM.
For the compound `Cc1cc(C#CCC2CCCCC2)cc(C)c1C(=O)Nc1cc(CC(=O)O)ccc1Cl` [Example 7, {4-Chloro-3-[4-(3-cyclohexylprop-1-yn-1-yl)-2,6-dimethylbenzamide]phenyl}acetic Acid], the concentration for half-maximal inhibition (IC50) on Human DP receptor was found to be 16 nM. Also, the concentration at 3 h in data set [1] turned out to be 0.045 µg/mL.
`Cc1cc(/C=C/CC2CCCCC2)cc(C)c1C(=O)Nc1cc(CC(=O)O)ccc1Cl` [Example 8, (4-Chloro-3-{4-[(1E)-3-cyclohexylprop-1-en-1-yl]-2,6-dimethylbenzamide}phenyl)acetic Acid] yielded a 50% inhibitory concentration (IC50) against Human DP receptor of 3.7 nM. For the same compound, in data set [1], the concentration at 3 h was 0.028 µg/mL. The “awakening time-prolonging effect (difference in total awakening time of 6 hours after administration vs vehicle-administered group)” value with normal rat came out at 48 min.
Consider `Cc1cc(OCCC2CCCCO2)cc(C)c1C(=S)Nc1cc(CC(=O)O)ccc1Cl` (stereo not drawn) [Example 10, [4-Chloro-3-({2,6-dimethyl-4-[2-(oxan-2-yl)ethoxy]benzene-1-carbothioyl}amino)phenyl]acetic Acid], for which the half-inhibitory concentration (IC50) on Human DP receptor amounted to 9.6 nM. The same compound gave a concentration at 3 h in data set [1] of 0.043 µg/mL.
`Cc1cc(OCCC2CCCCC2)cc(C)c1C(=S)Nc1cc(CC(=O)O)ccc1Cl` [Example 10-1, (4-Chloro-3-{[4-(2-cyclohexylethoxy)-2,6-dimethylbenzene-1-carbothioyl]amino}phenyl)acetic Acid] gave an IC50 at Human DP receptor of 1.7 nM. This compound also registered a concentration at 3 h in data set [1] of 0.036 µg/mL.
`O=C(O)Cc1ccc(Cl)c(NC(=S)c2ccc(OCCC3CCCCO3)cc2C(F)(F)F)c1` (stereo not drawn) [Example 10-2, [4-Chloro-3-({4-[2-(oxan-2-yl)ethoxy]-2-(trifluoromethyl)benzene-1-carbothioyl}amino)phenyl]acetic Acid] displayed a concentration at 3 h in data set [1] of 0.055 µg/mL.
In turn, `O=C(O)Cc1ccc(Cl)c(NC(=S)c2ccc(OCCc3ccccc3)cc2C(F)(F)F)c1` [Example 10-4, (4-Chloro-3-{[4-(2-phenylethoxy)-2-(trifluoromethyl)benzene-1-carbothioyl]amino}phenyl)acetic Acid] yielded an IC50 against Human DP receptor of 5.1 nM. The compound further displayed a concentration at 3 h in data set [1] of 0.034 µg/mL.
On to `Cc1cc(OCC[C@H]2CCCCO2)cc(C)c1C(=S)Nc1cc(CC(=O)O)ccc1Cl` [Example 12, {4-Chloro-3-[(2,6-dimethyl-4-{2-[(2R)-oxan-2-yl]ethoxy}benzene-1-carbothioyl]amino}phenyl}acetic Acid], for which, at Human DP receptor, inhibition was half-maximal at 4.8 nM (IC50). Besides, the concentration at 3 h in data set [1] is 0.048 µg/mL. The “awakening time-prolonging effect (difference in total awakening time of 6 hours after administration vs vehicle-administered group)” value in the data set on normal rat came to 60 min.
Take `Cc1cc(OCCC2CCCCO2)cc(C)c1C(=S)Nc1cc(C(C)(C)C(=O)O)ccc1F` (stereo not drawn) [Example 20, 2-{3-[({2,6-Dimethyl-4-[2-(tetrahydro-2H-pyran-2-yl)ethoxy]phenyl}carbothioyl)amino]-4-fluorophenyl}-2-methylpropanoic Acid]: on Human DP receptor, inhibition was half-maximal at 35 nM (IC50). In addition, in data set [1], the concentration at 3 h was 0.052 µg/mL.

The values are drawn from patent publication US11319296B2, “DP antagonist” (ONO PHARMACEUTICAL CO., LTD., priority 2018, dated 2022).
